Here are results for one compound from patent US11091786B2, “Butelase-mediated peptide ligation” (Nanyang Technological University, priority 2015, dated 2021).

Holding throughout (assay type): cell-based
Experiment [1] deals with E. cloacae DM 09800. As to conditions: DM 09800, 18 h. How it is done:
(§1) The following protocol was applied to the radial diffusion assay.
(§2) 1. A single colony was picked and transferred into a 5 ml tube containing 2.5 ml TSB. The culture was shaken at 37° C. for 18 h.
(§3) 2. 50 μl of the stationary phase culture was diluted to 2.5 mL of autoclaved TSB (1:50 dilution) and shaken at 37° C. for another 3 h.
(§4) 3. This subculture was centrifuged at 5000 rpm for 5 min and the supernatant was discarded. The residual cells were washed with cold sterile 10 mM phosphate buffer, pH 7.4 and the buffer was discarded after centrifuge. 5 ml of the same buffer was added to resuspend the cells and its bacteria concentration was determined by measuring its optical density at 620 nm.
(§5) 4. 10 ml of antoclaved, molten underlay gel agar was transferred to a 15-ml eppendorf tube and mixed with 4×10^6 CFU of bacteria by vortexing. The mixture was then poured into a petri dish and gelled in less than […]. Wells were punched against the gel using a Pasteur pippette.
(§6) 5. Peptides to be tested were serially diluted and 3.5 μl of each sample was added to the well. The plates were incubated at 37° C. for 3 h with gel-side up.
(§7) 6. Next, each underlay gel was covered with 10 ml of overlay gel. After the gel solidified, the plates were turned gel-side up and incubated at 37° C. for overnight.
(§8) 7. The following morning, all the plates were taken out and the zone diameters were measured with ruler. All the samples were tested in duplicates and the results were averaged. The final minimum inhibition concentration (MIC) was determined using excel.
(§9) There is a growing interest to develop peptide-based antibiotics (Annu Rev Immunol. 1995, 13, 61-92; J Intern Med. 2003, 254, 197-215; Cent Eur J Biol 2007, 2, 1-33; Int J Pept Res Ther. 2010, 16, 199-213) because, compared with conventional antibiotics, they are less likely to develop drug resistance and have fewer side effects (J Med Chem. 2015, 58, 6533-6548; Biochemistry-Us. 2000, 39, 7159-7169; Eur J Biochem. 2000, 267, 3289-3300; Nucleic Acids Res. 2012, 40, W199-204). To apply the presently disclosed enzymatic method in preparing dendrimeric antimicrobials, inventors synthesized two antimicrobials 12 (bivalent) and 13 (tetravalent) (MS shown in supporting information) which harbored a tetrapeptide RLYR (SEQ ID NO:121) as the antibacterial sequence (Eur J Biochem. 2002, 269, 923-932) by ligating N-acetylated thiodepsipeptide 10 Ac-RLYRN-thioglc-V (SEQ ID NO:120) with dendron core 2 and 6 respectively. The RLYR (SEQ ID NO:121) tetrapeptide contains a BHHB motif (B=basic, H=hydrophobic) which is commonly found in certain potent and broad-spectrum β-stranded antimicrobial peptides (BioDrugs. 2013, 27, 479-493) such as PG (protegrins) (Febs Lett. 1993, 327, 231-236) and RTD-1 (rhesus monkey theta defensin) (Science. 1999, 286, 498-502). This consensus motif with positive charged and hydrophobic residues was successfully used as a dendrimeric antimicrobial in 2002 (Eur J Biochem. 2002, 269, 923-932). Such short peptide-based dendrimeric antimicrobials are broad-spectrum antibiotics and kill bacterial cells through electrostatic and hydrophobic interactions with the negatively charged microbial cytoplasmic membranes (Biochemistry-Us. 2009, 48, 5642-5657). Using a radial diffusion assay, inventors tested the antimicrobial activities against E. coli and S. aureus of these two dendrimeric peptides together with prototypical monomer 11 RLYR (SEQ ID NO:121), mono-, tri-lysine dendron core 2 and 6 for comparison. All assays were performed under a high-salt condition (100 mM NaCl) to simulate physiological conditions. […] The tetravalent dendrimeric structure 13 had further improved antimicrobial activities with MICs<3 μM against both strains. When testing 13 against several drug-resistant strains under high-salt condition, the tetramer construct was broadly active against all six tested strains with MICs ranging from 0.87 to 4.8 μM. […]

Experiment [2] deals with E. coli DM 04604. To be noted: DM 04604, 18 h. The method, then: as §1, §2, §3, §4, §5, §6, §7, §8, §9
The test system of experiment [3] is E. coli DU 09777. To be noted: DU 09777, 18 h. How it is done: as §1, §2, §3, §4, §5, §6, §7, §8, §9
The test system of experiment [4] is K. species DR 13779. As to conditions: 18 h. The method, then:
as §1, §2, §3, §4, §5, §6, §7, §8, §9

Experiment [5] relates to P. aeruginosa DM 14158. To be noted: DM 14158, 18 h. How it is done: as §1, §2, §3, §4, §5, §6, §7, §8, §9
In experiment [6] the test system is S. aureus DB 14329. To be noted: DB 14329, 18 h. How it is done:
as §1, §2, §3, §4, §5, §6, §7, §8, §9

In experiment [7] the test system is drug-resistant strains. How it is done:
as §1, §2, §3, §4, §5, §6, §7, §8, §9

Converted amounts (≈) assume the structure as drawn. Bridge positions count the residues as written; N and C are the ends. Square brackets hold non-standard residues; d marks the D form. Peptide text beside a SMILES is read from it. I, II: the chains in the order shown. βAla = NCCC(=O)O

As for `CC[C@H](C)[C@H](NC(=O)[C@H](CCCNC(=N)N)NC(=O)[C@H](CC(N)=O)NC(=O)[C@H](CCCNC(=N)N)NC(=O)[C@H](Cc1ccc(O)cc1)NC(=O)[C@H](CC(C)C)NC(=O)[C@H](CCCNC(=N)N)NC(C)=O)C(=O)NCCC(=O)NCCCC[C@H](NC(=O)CCNC(=O)[C@@H](NC(=O)[C@H](CCCNC(=N)N)NC(=O)[C@H](CC(N)=O)NC(=O)[C@H](CCCNC(=N)N)NC(=O)[C@H](Cc1ccc(O)cc1)NC(=O)[C@H](CC(C)C)NC(=O)[C@H](CCCNC(=N)N)NC(C)=O)[C@@H](C)CC)C(=O)NCCCC[C@H](NC(=O)[C@H](CCCCNC(=O)CCNC(=O)[C@@H](NC(=O)[C@H](CCCNC(=N)N)NC(=O)[C@H](CC(N)=O)NC(=O)[C@H](CCCNC(=N)N)NC(=O)[C@H](Cc1ccc(O)cc1)NC(=O)[C@H](CC(C)C)NC(=O)[C@H](CCCNC(=N)N)NC(C)=O)[C@@H](C)CC)NC(=O)CCNC(=O)[C@@H](NC(=O)[C@H](CCCNC(=N)N)NC(=O)[C@H](CC(N)=O)NC(=O)[C@H](CCCNC(=N)N)NC(=O)[C@H](Cc1ccc(O)cc1)NC(=O)[C@H](CC(C)C)NC(=O)[C@H](CCCNC(=N)N)NC(C)=O)[C@@H](C)CC)C(=O)N[C@@H](Cc1ccc(O)cc1)C(N)=O` [Tetramer 13, (Ac-RLYRNRIβA)4K2KY] (I: Ac-RLYRNRI[βAla]KKY-NH2 / II: Ac-RLYRNRI[βAla]K / III: Ac-RLYRNRI[βAla] / IV: Ac-RLYRNRI[βAla]; amide I:9-IV:C, I:10-II:C, II:9-III:C), the MIC (commonly the lowest concentration that inhibits growth of the organism) is 0.9 µM (≈ 4.42 µg/mL) in experiment [1]; 4.5 µM (≈ 22.1 µg/mL) in experiment [2]; 2.2 µM (≈ 10.8 µg/mL) in experiment [3]; 1.5 µM (≈ 7.36 µg/mL) in experiment [4]; 2.3 µM (≈ 11.3 µg/mL) in experiment [5]; 4.8 µM (≈ 23.5 µg/mL) in experiment [6]. Further, the “MICs, broad-spectrum” value in experiment [7] (all strains tested, including several drug-resistant bacterial strains) is under 5 µM. Further, in experiment [7] (six drug-resistant strains, high-salt condition), the “MICs against all six tested drug-resistant strains” value is 0.87 to 4.8 µM.
